# Several values for one entry are separate records, joined by “and”; a condition that tells them apart may be missing. Equal entries are not always repeated.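 Five concentrations, 48 hours, 96-well plates. Here, GI50 denotes the concentration required for 50% inhibition of growth. The concentration for full growth arrest is given as TGI.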 *1 amine or outer side, *2 acyl side, *3 side chain or, on linkers, in order; H or OH if unused. Where a SMILES comes first, the peptide text is derived from it. Bridges are numbered along the chain shown (N, C = ends). Roman numbers before positions name the chains, in order. [ ]: non-standard residue; d: D form. Actinocin(9to1) = Cc1c2oc3c(C)ccc(C(=O)[*:1])c3nc-2c(C(=O)[*:2])c(N)c1=O; NMeV = CN[CH](C(=O)O)C(C)C; Sar = CNCC(=O)O
# Assays:
# Assay in all cases: NCI tumour cell line growth inhibition, 48 h
# MCF7 breast = tested on: MCF7 breast
# BT-549 breast = tested on: BT-549 breast
# SR leukemia = tested on: SR leukemia
# K-562 leukemia = tested on: K-562 leukemia
# SF-268 CNS = tested on: SF-268 CNS
# OVCAR-3 ovarian = tested on: OVCAR-3 ovarian
# MOLT-4 leukemia = tested on: MOLT-4 leukemia
# SW-620 colon = tested on: SW-620 colon
# HT29 colon = tested on: HT29 colon
# UO-31 renal = tested on: UO-31 renal
# HL-60(TB) leukemia = tested on: HL-60(TB) leukemia
SMILES,TGI (MCF7 breast),TGI (BT-549 breast),TGI (SR leukemia),TGI (K-562 leukemia),TGI (SF-268 CNS),TGI (OVCAR-3 ovarian),TGI (MOLT-4 leukemia),TGI (SW-620 colon),TGI (HT29 colon),TGI (UO-31 renal),TGI (HL-60(TB) leukemia),GI50 (UO-31 renal),GI50 (K-562 leukemia),GI50 (SF-268 CNS),GI50 (HL-60(TB) leukemia),GI50 (MOLT-4 leukemia)
Clc1sc(Cl)c2c1[C@@H](Cl)C[C@@H]2Cl,> 100 µM,> 100 µM,> 100 µM,> 100 µM,> 100 µM,> 100 µM,> 100 µM,> 100 µM,> 100 µM,> 100 µM,–,–,–,–,–,–
COC(C/C(=C/CO[Si](C(C)C)(C(C)C)C(C)C)C(=O)N(COCC[Si](C)(C)C)c1ccccc1I)OC,–,–,> 100 µM,> 100 µM,–,46 µM,> 100 µM,> 100 µM,> 100 µM,> 100 µM,–,–,–,–,–,–
O=C(COc1ccc(OCC(=O)N2C(=O)CC(=O)N(c3ccc(Cl)cc3)C2=S)cc1)N1C(=O)CC(=O)N(c2ccc(Cl)cc2)C1=S,> 100 µM,87.8 µM,–,> 100 µM,> 100 µM,–,> 100 µM,> 100 µM,> 100 µM,> 100 µM,–,–,–,–,–,–
CCOC(=O)c1ccc(Nc2nc3ccccc3nc2-c2cccs2)cc1,> 100 µM,–,> 100 µM,> 100 µM,> 100 µM,> 100 µM,> 100 µM,–,–,> 100 µM,> 100 µM,–,–,–,–,–
O=C(NNC(=S)Nc1ccccc1)c1nsc2ccccc12,–,–,91.1 µM,> 100 µM,> 100 µM,35.1 µM,98.5 µM,> 100 µM,> 100 µM,75.4 µM,53.8 µM,–,–,–,–,–
COc1cccc(N=N/C(=N/NC(=O)c2ccc(C)cc2)c2ccc(N(CCC#N)CCC#N)cc2OC)c1,> 100 µM,> 100 µM,> 100 µM,> 100 µM,> 100 µM,> 100 µM,> 100 µM,> 100 µM,35.5 µM,> 100 µM,–,–,–,–,–,–
Cc1cccc2c(N)c3cccc(C(=O)NCC[N+](C)(C)Cc4ccc([N+](=O)[O-])s4)c3nc12,> 51.9 µM,> 70.5 µM,5.7 µM,27.9 µM,36.9 µM,49.6 µM,9.36 µM,> 66.3 µM,23.6 µM,> 74.7 µM,–,–,–,–,–,–
COC(=O)[C@@H]1CS(=O)(=O)C(C(C)C)N1C(C)=O (stereo partly specified),> 100 µM,> 100 µM,> 100 µM,> 100 µM,> 100 µM,> 100 µM,–,> 100 µM,> 100 µM,> 100 µM,32.1 µM,–,–,–,–,–
N#C/C(=C/C=C/c1ccco1)C(N)=O,> 10 µM,–,–,–,> 10 µM,> 10 µM,–,> 10 µM,> 10 µM,> 10 µM,–,–,–,–,–,–
"Cc1c2oc3c(C)ccc(C(=O)NC4C(=O)NC(Cc5ccccc5)C(=O)N5CCCC5C(=O)N(C)CC(=O)N(C)C(C(C)C)C(=O)OC4C)c3nc-2c(C(=O)NC2C(=O)NC(Cc3ccccc3)C(=O)N3CCCC3C(=O)N(C)CC(=O)N(C)C(C(C)C)C(=O)OC2C)c(N)c1=O (stereo unspecified) (I: TFP[Sar][NMeV] / II: TFP[Sar][NMeV]; ester I:1-I:C, II:1-II:C; linker I:N-II:N via Actinocin(9to1); configuration not given here)",> 100 µM,0.0135 µM,< 0.001 µM,0.00316 µM,0.121 µM and 0.528 µM,0.0252 µM and 0.04 µM,< 0.001 µM,–,0.0108 µM,0.468 µM and 0.31 µM,< 0.001 µM,0.0502 µM,–,–,–,–
CN1/C(=C/C=C/C=C/C=C2C(=O)c3ccccc3C2=O)C(C)(C)c2ccccc21,> 100 µM,81 µM,> 100 µM,> 100 µM,> 100 µM,> 100 µM,–,> 100 µM,> 100 µM,> 100 µM,> 100 µM,–,–,–,–,–
Cc1nc2cc(F)c(F)cc2[nH]c1=O,> 100 µM,> 100 µM,–,> 100 µM,> 100 µM,> 100 µM,> 100 µM,> 100 µM,> 100 µM,> 100 µM,> 100 µM,–,–,–,–,–
NCCCN(CCCCN(CCCN)C(=O)OCc1ccccc1)C(=O)OCc1ccccc1,77.7 µM,> 100 µM,–,> 100 µM,> 100 µM,> 100 µM,> 100 µM,> 100 µM,> 100 µM,> 100 µM,> 100 µM,–,–,–,–,–
O=C(O)CCC(=O)OCN1C(=O)C2C3C=CC(C2C1=O)C1C2C(=O)N(COC(=O)CCC(=O)O)C(=O)C2C31 (stereo unspecified),–,–,52.4 µM,> 100 µM,> 100 µM,> 100 µM,> 100 µM,> 68.4 µM,> 100 µM,> 100 µM,46.7 µM,–,–,–,–,–
O=c1[nH]nc(-c2ccccc2)n1/N=C/c1ccc([N+](=O)[O-])o1,7.21 µM,–,> 100 µM,> 77.1 µM,> 28 µM,15.5 µM,> 47.1 µM,15.2 µM,> 48.7 µM,12.9 µM,> 44.4 µM,–,–,–,–,–
Cc1cc(-n2nnc(C(=O)O)c2-c2ccccc2)c2ccc(Cl)cc2n1,> 100 µM,> 100 µM,–,> 100 µM,> 100 µM,> 100 µM,> 100 µM,> 100 µM,> 100 µM,> 100 µM,> 100 µM,–,–,–,–,–
O=[N+]([O-])c1ccc(NN=C2CN3CCN(C2)c2ccccc23)c([N+](=O)[O-])c1,> 100 µM,> 100 µM,> 100 µM,> 100 µM,> 100 µM,> 100 µM,> 100 µM,> 100 µM,> 100 µM,> 100 µM,–,–,–,–,–,–
O=P1(N2CCOCC2)OCCO1,> 100 µM,–,> 100 µM,> 100 µM,> 100 µM,–,> 100 µM,> 100 µM,> 100 µM,> 100 µM,> 100 µM,–,–,–,–,–
CC(C)(C)c1ccc(C(O)CCCN2CCC(C(O)(c3ccccc3)c3ccccc3)CC2)cc1 (stereo unspecified),–,–,–,5.14 µM,2.92 µM,–,5.32 µM,–,2.23 µM and 20.9 µM,–,3.97 µM,–,2.18 µM,1.57 µM,2.16 µM,2.16 µM
N#CC1(C#N)C(C#N)(C#N)C1(C#N)C(N)=O,> 100 µM,> 100 µM,> 100 µM,> 100 µM,> 100 µM,–,> 100 µM,> 100 µM,> 100 µM,> 100 µM,> 100 µM,–,–,–,–,–
